The record followed here is ChEMBL document CHEMBL1909046, “DrugMatrix in vitro pharmacology data”.

In series [1] the target is Cannabinoid receptor 1 (Homo sapiens, UniProt P21554). Format: cell membranes, Chem-1, Membrane. The conditions noted are these: chem-1. Also: in other assays of this panel Not Active means under 50% inhibition at 10 µM.
The target in series [2] is T1, 3-hydroxy-3-methylglutaryl-coenzyme A reductase (Homo sapiens, UniProt P04035).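 Also: enzyme inhibition assay of HMG-CoA reductase using radiolabeled [14C]HMG-CoA as substrate; in other assays of this panel Not Active means under 50% inhibition at 10 µM.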
T1 sequence (P04035 whole entry): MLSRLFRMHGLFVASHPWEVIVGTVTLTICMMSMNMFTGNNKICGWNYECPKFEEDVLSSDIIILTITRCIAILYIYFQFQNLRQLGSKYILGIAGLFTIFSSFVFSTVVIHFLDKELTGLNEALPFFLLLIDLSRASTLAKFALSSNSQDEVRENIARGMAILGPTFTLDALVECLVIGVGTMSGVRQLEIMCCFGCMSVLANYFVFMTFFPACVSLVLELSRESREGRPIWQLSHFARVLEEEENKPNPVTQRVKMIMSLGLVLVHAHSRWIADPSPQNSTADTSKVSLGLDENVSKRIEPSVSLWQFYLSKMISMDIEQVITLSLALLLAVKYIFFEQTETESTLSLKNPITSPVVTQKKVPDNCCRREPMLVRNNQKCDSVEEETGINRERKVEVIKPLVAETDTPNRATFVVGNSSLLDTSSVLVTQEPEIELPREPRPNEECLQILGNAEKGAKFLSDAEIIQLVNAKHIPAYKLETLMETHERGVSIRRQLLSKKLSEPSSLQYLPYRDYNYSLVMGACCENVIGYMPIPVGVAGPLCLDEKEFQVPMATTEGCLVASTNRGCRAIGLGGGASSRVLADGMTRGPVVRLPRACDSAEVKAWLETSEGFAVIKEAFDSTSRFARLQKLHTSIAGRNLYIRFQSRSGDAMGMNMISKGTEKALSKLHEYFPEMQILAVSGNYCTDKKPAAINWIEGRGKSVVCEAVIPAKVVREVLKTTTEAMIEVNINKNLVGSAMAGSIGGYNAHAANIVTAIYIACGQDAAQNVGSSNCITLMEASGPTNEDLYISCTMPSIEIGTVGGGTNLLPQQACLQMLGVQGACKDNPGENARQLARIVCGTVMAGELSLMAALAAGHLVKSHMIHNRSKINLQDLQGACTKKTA
On the set-up: species or system Escherichia coli.

Series [3] has as its target Cytochrome P450 2C9 (Homo sapiens, UniProt P11712). The conditions noted are these: bti-tn-5b1-4. Also: in other assays of this panel Not Active means under 50% inhibition at 10 µM.
Series [4] addresses T2, Cathepsin G (Homo sapiens, UniProt P08311).
T2 sequence (P08311 whole entry): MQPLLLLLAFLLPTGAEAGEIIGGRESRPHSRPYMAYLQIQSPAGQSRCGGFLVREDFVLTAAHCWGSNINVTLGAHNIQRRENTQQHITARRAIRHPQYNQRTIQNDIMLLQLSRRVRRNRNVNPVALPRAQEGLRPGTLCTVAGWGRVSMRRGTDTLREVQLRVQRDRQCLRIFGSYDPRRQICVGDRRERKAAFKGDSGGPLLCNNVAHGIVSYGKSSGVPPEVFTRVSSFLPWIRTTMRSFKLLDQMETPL
In words: biochemical. Format: tissue-based, Neutrophil. Particulars: neutrophil.

Series [5] has as its target Carbonic anhydrase 2 (Homo sapiens, UniProt P00918). Nature of the series: DRUGMATRIX: Carbonic Anhydrase II enzyme inhibition (substrate: 4-Nitrophenyl acetate (4-NPA)). Format: tissue-based, Erythrocyte. The conditions noted are these: Not Active = under 50% inhibition at 10 µM.
Series [6] addresses T3, Cytochrome P450 1A2 (Homo sapiens, UniProt P05177).
T3 sequence (P05177 whole entry): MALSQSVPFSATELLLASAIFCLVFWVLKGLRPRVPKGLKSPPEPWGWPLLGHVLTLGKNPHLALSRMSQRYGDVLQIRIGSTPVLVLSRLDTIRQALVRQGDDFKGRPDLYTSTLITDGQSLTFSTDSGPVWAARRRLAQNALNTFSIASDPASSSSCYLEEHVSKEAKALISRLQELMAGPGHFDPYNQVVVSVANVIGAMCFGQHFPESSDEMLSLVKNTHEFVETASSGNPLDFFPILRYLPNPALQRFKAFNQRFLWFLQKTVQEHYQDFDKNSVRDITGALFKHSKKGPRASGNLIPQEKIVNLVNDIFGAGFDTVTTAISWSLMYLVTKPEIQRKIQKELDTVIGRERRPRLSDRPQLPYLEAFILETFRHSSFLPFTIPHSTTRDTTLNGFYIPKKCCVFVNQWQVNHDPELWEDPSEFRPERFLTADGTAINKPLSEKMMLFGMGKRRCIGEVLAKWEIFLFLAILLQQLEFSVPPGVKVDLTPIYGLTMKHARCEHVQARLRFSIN
Particulars: bti-tn-5b1-4.

Series [7] can be described thus: DRUGMATRIX: Calcium Channel Type L, Dihydropyridine radioligand binding (ligand: [3H] Nitrendipine). Format: cell membranes, Rattus norvegicus, Wistar, Cerebral cortex, Membrane. The conditions noted are these: Not Active = under 50% inhibition at 10 µM.
Series [8] is described as follows: DRUGMATRIX: Glutamate, Kainate radioligand binding (ligand: [3H] Kainic acid). Format: cell membranes, Rattus norvegicus, Wistar, Brain, Membrane. The conditions noted are these: Not Active = under 50% inhibition at 10 µM.

Chain of Cannabinoid receptor 1 (P21554 whole entry): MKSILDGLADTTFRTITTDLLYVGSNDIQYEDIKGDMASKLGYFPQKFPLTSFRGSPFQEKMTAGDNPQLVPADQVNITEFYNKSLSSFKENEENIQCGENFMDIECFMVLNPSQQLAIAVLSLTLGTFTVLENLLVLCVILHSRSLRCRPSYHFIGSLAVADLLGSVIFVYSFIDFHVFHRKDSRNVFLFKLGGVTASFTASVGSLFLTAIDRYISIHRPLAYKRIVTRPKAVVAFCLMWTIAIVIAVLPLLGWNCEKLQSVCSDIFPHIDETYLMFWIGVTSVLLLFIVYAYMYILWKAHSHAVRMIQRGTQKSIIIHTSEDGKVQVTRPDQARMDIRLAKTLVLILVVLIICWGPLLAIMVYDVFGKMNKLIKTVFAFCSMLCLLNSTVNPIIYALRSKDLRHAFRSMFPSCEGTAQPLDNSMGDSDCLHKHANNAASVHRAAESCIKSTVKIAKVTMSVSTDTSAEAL
Chain of Cytochrome P450 2C9 (P11712 whole entry): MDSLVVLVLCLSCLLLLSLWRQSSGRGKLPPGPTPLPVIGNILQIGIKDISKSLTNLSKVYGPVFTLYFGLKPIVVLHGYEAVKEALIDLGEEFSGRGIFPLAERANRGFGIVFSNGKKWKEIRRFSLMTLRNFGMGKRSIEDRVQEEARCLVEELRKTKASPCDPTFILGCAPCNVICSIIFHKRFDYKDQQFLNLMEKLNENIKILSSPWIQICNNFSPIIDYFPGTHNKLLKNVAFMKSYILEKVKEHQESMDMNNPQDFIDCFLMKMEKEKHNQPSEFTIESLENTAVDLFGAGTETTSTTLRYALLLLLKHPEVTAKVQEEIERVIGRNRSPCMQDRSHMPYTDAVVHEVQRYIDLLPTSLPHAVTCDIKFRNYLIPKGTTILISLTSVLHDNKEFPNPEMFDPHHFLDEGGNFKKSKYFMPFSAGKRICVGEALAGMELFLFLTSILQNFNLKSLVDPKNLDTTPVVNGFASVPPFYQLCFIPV

With `C[C@@H]1[C@H](O)[C@@H](C)/C=C/C=C/C=C/C=C/C=C/C=C/C=C/[C@H](O[C@@H]2O[C@H](C)[C@@H](O)[C@H](N)[C@@H]2O)C[C@@H]2O[C@](O)(C[C@@H](O)C[C@@H](O)[C@H](O)CC[C@@H](O)C[C@@H](O)CC(=O)O[C@H]1C)C[C@H](O)[C@H]2C(=O)O` [AMPHOTERICIN B], the IC50 entry in series [1], in series [2], in series [3], in series [4], in series [5] (erythrocyte) and in series [6] was “Not Active” each time. Also, the IC50 entry in series [7] and in series [8] was “Not Active” each time. Further, the Ki entry in series [3], in series [6], in series [7] and in series [8] was “Not Active” throughout.

With `O=C(O)c1ccccc1` [BENZOIC ACID], the IC50 entry in series [1], in series [2], in series [3], in series [4], in series [5] (erythrocyte) and in series [6] was “Not Active” in each case. Further, the IC50 entry in series [7] and in series [8] was “Not Active” in each case. In addition, the Ki result in series [3], in series [6], in series [7] and in series [8] was “Not Active” each time.

With `C[C@]12CC[C@@H](O)C[C@@H]1CC[C@@H]1[C@@H]2CC[C@]2(C)C(=O)CC[C@@H]12` [ANDROSTERONE], the IC50 entry in series [1], in series [2], in series [3], in series [4], in series [5] (erythrocyte) and in series [6] was “Not Active” in each case. The IC50 result in series [7] and in series [8] was “Not Active” in each case. In addition, the Ki entry in series [3], in series [6], in series [7] and in series [8] was “Not Active” throughout.

For the compound `NCC(CC(=O)O)c1ccc(Cl)cc1` (stereo unspecified) [BACLOFEN], the IC50 entry in series [1], in series [2], in series [3], in series [4], in series [5] (erythrocyte) and in series [6] was “Not Active” each time. Moreover, the IC50 result in series [7] and in series [8] was “Not Active” each time. The Ki entry in series [3], in series [6], in series [7] and in series [8] was “Not Active” each time.

Consider `O=C(O)CO` [GLYCOLIC ACID], for which the IC50 result in series [1], in series [2], in series [3], in series [4], in series [5] (erythrocyte) and in series [6] was “Not Active” each time. For the same compound, the IC50 entry in series [7] and in series [8] was “Not Active” each time. Further, the Ki result in series [3], in series [6], in series [7] and in series [8] was “Not Active” in each case.

With `COc1ccccc1OCCNCC(O)COc1cccc2[nH]c3ccccc3c12` (stereo unspecified) [CARVEDILOL], the IC50 result in series [1], in series [2], in series [3], in series [4], in series [5] (erythrocyte) and in series [6] was “Not Active” each time. Further, the IC50 entry in series [7] and in series [8] was “Not Active” in each case. Moreover, the Ki entry in series [3], in series [6], in series [7] and in series [8] was “Not Active” throughout.

Regarding `O=C(NCCN1CCOCC1)c1ccc(Cl)cc1` [MOCLOBEMIDE], the IC50 result in series [1], in series [2], in series [3], in series [4], in series [5] (erythrocyte) and in series [6] was “Not Active” throughout. For the same compound, the IC50 entry in series [7] and in series [8] was “Not Active” in each case. In addition, the Ki result in series [3], in series [6], in series [7] and in series [8] was “Not Active” each time.

With `C=CCO` [ALLYL ALCOHOL], the IC50 result in series [1], in series [2], in series [3], in series [4], in series [5] (erythrocyte) and in series [6] was “Not Active” in each case. Besides, the IC50 entry in series [7] and in series [8] was “Not Active” in each case. Besides, the Ki entry in series [3], in series [6], in series [7] and in series [8] was “Not Active” in each case.

As to `CC(C)Cc1ccc([C@H](C)C(=O)O)cc1` [DEXIBUPROFEN], the IC50 entry in series [1], in series [2], in series [3], in series [4], in series [5] (erythrocyte) and in series [6] was “Not Active” in each case. The IC50 result in series [7] and in series [8] was “Not Active” each time. Moreover, the Ki result in series [3], in series [6], in series [7] and in series [8] was “Not Active” each time.

With `O=c1[nH]cnc2c1ncn2[C@H]1CC[C@@H](CO)O1` [DIDANOSINE], the IC50 entry in series [1], in series [2], in series [3], in series [4], in series [5] (erythrocyte) and in series [6] was “Not Active” in each case. The IC50 entry in series [7] and in series [8] was “Not Active” throughout. In addition, the Ki result in series [3], in series [6], in series [7] and in series [8] was “Not Active” each time.

With `CC1(COc2ccc(CC3SC(=O)NC3=O)cc2)CCCCC1` (stereo unspecified) [CIGLITAZONE], the IC50 entry is “Not Active” in series [1]; “Not Active” in series [2]; “Not Active” in series [3]; “Not Active” in series [4]; 86 nM in series [5] (read-out: IC50); “Not Active” in series [6]. Also, the IC50 result in series [7] and in series [8] was “Not Active” in each case. In addition, the Ki entry in series [3], in series [6], in series [7] and in series [8] was “Not Active” in each case.

`C[C@H](C(=O)O)c1ccc2oc(-c3ccc(F)cc3)nc2c1` [FLUNOXAPROFEN]: the IC50 result in series [1], in series [2], in series [3], in series [4], in series [5] (erythrocyte) and in series [6] was “Not Active” throughout. Moreover, the IC50 entry in series [7] and in series [8] was “Not Active” in each case. The Ki entry in series [3], in series [6], in series [7] and in series [8] was “Not Active” throughout.

Regarding `CC(C)Cn1cnc2c(N)nc3ccccc3c21` [IMIQUIMOD], the IC50 result in series [1], in series [2], in series [3], in series [4], in series [5] (erythrocyte) and in series [6] was “Not Active” throughout. The IC50 entry in series [7] and in series [8] was “Not Active” each time. In addition, the Ki entry in series [3], in series [6], in series [7] and in series [8] was “Not Active” each time.
